Reference: ChEMBL document CHEMBL1201862, “PubChem BioAssay data set” (2004)
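Grown in 96-well plates, cells were treated for 48 hours with each compound at five concentrations. Insufficient inhibition: endpoint recorded as highest concentration tested. Abbreviation: GI50, concentration required for 50% inhibition of growth.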 Calls of active or inactive are those of the source. Cut-off read from the data, not from the text of the source: active = GI50 up to about 1.1 µM and inactive = higher.

How the values were obtained:
Assay in all cases: DTP human tumour cell line panel, 48 h
[1] = tested on: MCF7
[2] = tested on: EKVX
[3] = tested on: SK-MEL-28
[4] = tested on: UACC-257
[5] = tested on: MDA-MB-231
[6] = tested on: SN12C
[7] = tested on: HOP-62
[8] = tested on: SK-OV-3
[9] = tested on: SNB-75
[10] = tested on: COLO 205
[11] = tested on: 786-0
[12] = tested on: DU-145
[13] = tested on: RXF 393
[14] = tested on: OVCAR-3
[15] = tested on: PC-3
[16] = tested on: MDA-N
[17] = tested on: SK-MEL-2
[18] = tested on: Malme-3M
[19] = tested on: NCI-H460
[20] = tested on: TK-10
[21] = tested on: HCT-116
[22] = tested on: OVCAR-5
[23] = tested on: SNB-19
[24] = tested on: T47D
[25] = tested on: HCC 2998
[26] = tested on: M14
[27] = tested on: UO-31
[28] = tested on: SK-MEL-5
[29] = tested on: SF-295
[30] = tested on: NCI/ADR-RES
[31] = tested on: UACC-62
[32] = tested on: IGROV-1
[33] = tested on: ACHN
[34] = tested on: HT-29
[35] = tested on: Hs-578T
[36] = tested on: NCI-H23
[37] = tested on: NCI-H226
[38] = tested on: SF-268
[39] = tested on: HL-60
[40] = tested on: U-251
[41] = tested on: SF-539
[42] = tested on: CCRF-CEM
[43] = tested on: CAKI-1
[44] = tested on: SW-620
[45] = tested on: A549
[46] = tested on: LOX IMVI
[47] = tested on: MOLT-4
[48] = tested on: KM12
[49] = tested on: SR
[50] = tested on: NCI-H522
[51] = tested on: OVCAR-8
[52] = tested on: HOP-92
[53] = tested on: RPMI-8226
[54] = tested on: OVCAR-4
[55] = tested on: MDA-MB-435
[56] = tested on: HCT-15
[57] = tested on: K562
[58] = tested on: A498

COc1cccc(/C=C/c2ccc(S(N)(=O)=O)cc2)c1
GI50 [1]: 8.07 µM (inactive) | GI50 [2]: 11.8 µM (inactive) | GI50 [3]: 44 µM (inactive) | GI50 [4]: 16.4 µM (inactive) | GI50 [5]: 25.1 µM (inactive) | GI50 [6]: 18.2 µM (inactive) | GI50 [7]: 24 µM (inactive) | GI50 [8]: 30.4 µM (inactive) | GI50 [9]: 17.4 µM (inactive) | GI50 [10]: 11.7 µM (inactive) | GI50 [11]: 17.8 µM (inactive) | GI50 [12]: 26.1 µM (inactive) | GI50 [13]: 5.5 µM (inactive) | GI50 [14]: 5.31 µM (inactive) | GI50 [15]: 22.7 µM (inactive) | GI50 [16]: 17 µM (inactive) | GI50 [17]: 5.9 µM (inactive) | GI50 [18]: 23.2 µM (inactive) | GI50 [19]: 10.3 µM (inactive) | GI50 [20]: 12.5 µM (inactive) | GI50 [21]: 7.36 µM (inactive) | GI50 [22]: 59.4 µM (inactive) | GI50 [23]: 46.6 µM (inactive) | GI50 [24]: 4.94 µM (inactive) | GI50 [25]: 10.5 µM (inactive) | GI50 [26]: 36.1 µM (inactive) | GI50 [27]: 18.6 µM (inactive) | GI50 [28]: 17.1 µM (inactive) | GI50 [29]: 6.75 µM (inactive) | GI50 [30]: 23.1 µM (inactive)

COP(=O)(OC)C(O)/C=C(\Cl)c1ccc(Cl)cc1 (configuration not stated)
GI50 [1]: 96.4 µM (inactive) | GI50 [31]: 56 µM (inactive) | GI50 [2]: > 100 µM (inactive) | GI50 [32]: > 100 µM (inactive) | GI50 [33]: 85.1 µM (inactive) | GI50 [34]: > 100 µM (inactive) | GI50 [35]: > 100 µM (inactive) | GI50 [36]: 21.2 µM (inactive) | GI50 [37]: > 100 µM (inactive) | GI50 [3]: > 100 µM (inactive) | GI50 [38]: 65.2 µM (inactive) | GI50 [39]: 32.9 µM (inactive) | GI50 [4]: 28.4 µM (inactive) | GI50 [5]: 43.8 µM (inactive) | GI50 [6]: 40.7 µM (inactive) | GI50 [40]: 53.2 µM (inactive) | GI50 [7]: 28.4 µM (inactive) | GI50 [8]: > 100 µM (inactive) | GI50 [41]: > 100 µM (inactive) | GI50 [42]: 21.1 µM (inactive) | GI50 [9]: > 100 µM (inactive) | GI50 [43]: 69.2 µM (inactive) | GI50 [44]: 38.8 µM (inactive) | GI50 [10]: > 100 µM (inactive) | GI50 [45]: > 100 µM (inactive) | GI50 [11]: 19.2 µM (inactive) | GI50 [12]: > 100 µM (inactive) | GI50 [13]: 78.2 µM (inactive) | GI50 [46]: 19.6 µM (inactive) | GI50 [14]: 19.1 µM (inactive) | GI50 [15]: 31.6 µM (inactive) | GI50 [17]: > 100 µM (inactive) | GI50 [18]: > 100 µM (inactive) | GI50 [19]: > 100 µM (inactive) | GI50 [47]: 28.1 µM (inactive) | GI50 [48]: > 100 µM (inactive) | GI50 [49]: 21.3 µM (inactive) | GI50 [50]: 49.1 µM (inactive) | GI50 [20]: > 100 µM (inactive) | GI50 [21]: 18.4 µM (inactive) | GI50 [22]: > 100 µM (inactive) | GI50 [23]: 75.5 µM (inactive) | GI50 [24]: 25.3 µM (inactive) | GI50 [51]: 23.9 µM (inactive) | GI50 [52]: 18.9 µM (inactive) | GI50 [53]: 25.6 µM (inactive) | GI50 [26]: 62.1 µM (inactive) | GI50 [27]: 71 µM (inactive) | GI50 [28]: 23.7 µM (inactive) | GI50 [29]: > 100 µM (inactive) | GI50 [54]: 37.2 µM (inactive) | GI50 [55]: 40.7 µM (inactive) | GI50 [56]: 25.9 µM | GI50 [57]: 43.5 µM (inactive) | GI50 [30]: 23.1 µM (inactive)

O=c1ccc(=O)c2c1c1[nH]c3ccccc3c1c1c(=O)c3ccccc3c(=O)c21
GI50 [31]: > 10 µM (inactive) | GI50 [2]: > 10 µM (inactive) | GI50 [32]: > 10 µM (inactive) | GI50 [33]: > 10 µM (inactive) | GI50 [34]: > 10 µM (inactive) | GI50 [35]: > 10 µM (inactive) | GI50 [36]: > 10 µM (inactive) | GI50 [37]: > 10 µM (inactive) | GI50 [3]: > 10 µM (inactive) | GI50 [38]: > 10 µM (inactive) | GI50 [39]: 3.85 µM (inactive) | GI50 [58]: > 10 µM (inactive) | GI50 [4]: > 10 µM (inactive) | GI50 [5]: 5.36 µM (inactive) | GI50 [6]: > 10 µM (inactive) | GI50 [40]: > 10 µM (inactive) | GI50 [7]: > 10 µM (inactive) | GI50 [8]: > 10 µM (inactive) | GI50 [41]: > 10 µM (inactive) | GI50 [42]: 3.19 µM (inactive) | GI50 [9]: > 10 µM (inactive) | GI50 [43]: 6.71 µM (inactive) | GI50 [44]: 8.22 µM (inactive) | GI50 [10]: > 10 µM (inactive) | GI50 [45]: > 10 µM (inactive) | GI50 [11]: > 10 µM (inactive) | GI50 [12]: > 10 µM (inactive) | GI50 [13]: > 10 µM (inactive) | GI50 [46]: > 10 µM (inactive) | GI50 [14]: > 10 µM (inactive) | GI50 [15]: > 10 µM (inactive) | GI50 [17]: > 10 µM (inactive) | GI50 [18]: > 10 µM (inactive) | GI50 [19]: > 10 µM (inactive) | GI50 [47]: 3.24 µM (inactive) | GI50 [48]: > 10 µM (inactive) | GI50 [49]: > 10 µM (inactive) | GI50 [50]: > 10 µM (inactive) | GI50 [20]: 4.92 µM (inactive) | GI50 [21]: > 10 µM (inactive) | GI50 [22]: > 10 µM (inactive) | GI50 [23]: > 10 µM (inactive) | GI50 [24]: > 10 µM (inactive) | GI50 [25]: > 10 µM (inactive) | GI50 [51]: > 10 µM (inactive) | GI50 [52]: 0.333 µM (active) | GI50 [53]: > 10 µM (inactive) | GI50 [26]: > 10 µM (inactive) | GI50 [27]: 5.66 µM (inactive) | GI50 [28]: > 10 µM (inactive) | GI50 [29]: > 10 µM (inactive) | GI50 [54]: > 10 µM (inactive) | GI50 [55]: > 10 µM (inactive) | GI50 [56]: > 10 µM | GI50 [57]: 5.32 µM (inactive) | GI50 [30]: > 10 µM (inactive)

N/N=C1\CCCc2c1no[n+]2[O-]
GI50 [1]: > 100 µM (inactive) | GI50 [31]: > 100 µM (inactive) | GI50 [2]: > 100 µM (inactive) | GI50 [32]: > 100 µM (inactive) | GI50 [33]: > 100 µM (inactive) | GI50 [34]: > 100 µM (inactive) | GI50 [35]: > 100 µM (inactive) | GI50 [36]: > 100 µM (inactive) | GI50 [37]: > 100 µM (inactive) | GI50 [3]: > 100 µM (inactive) | GI50 [38]: > 100 µM (inactive) | GI50 [39]: > 100 µM (inactive) | GI50 [58]: > 100 µM (inactive) | GI50 [4]: > 100 µM (inactive) | GI50 [5]: > 100 µM (inactive) | GI50 [6]: > 100 µM (inactive) | GI50 [40]: > 100 µM (inactive) | GI50 [7]: > 100 µM (inactive) | GI50 [8]: > 100 µM (inactive) | GI50 [41]: > 100 µM (inactive) | GI50 [42]: > 100 µM (inactive) | GI50 [9]: > 100 µM (inactive) | GI50 [43]: > 100 µM (inactive) | GI50 [44]: > 100 µM (inactive) | GI50 [10]: > 100 µM (inactive) | GI50 [45]: > 100 µM (inactive) | GI50 [11]: > 100 µM (inactive) | GI50 [12]: > 100 µM (inactive) | GI50 [13]: > 100 µM (inactive) | GI50 [46]: > 100 µM (inactive) | GI50 [14]: > 100 µM (inactive) | GI50 [15]: > 100 µM (inactive) | GI50 [16]: > 100 µM (inactive) | GI50 [17]: > 100 µM (inactive) | GI50 [18]: > 100 µM (inactive) | GI50 [19]: > 100 µM (inactive) | GI50 [47]: > 100 µM (inactive) | GI50 [48]: > 100 µM (inactive) | GI50 [49]: > 100 µM (inactive) | GI50 [50]: > 100 µM (inactive) | GI50 [20]: > 100 µM (inactive) | GI50 [21]: > 100 µM (inactive) | GI50 [22]: > 100 µM (inactive) | GI50 [23]: > 100 µM (inactive) | GI50 [25]: > 100 µM (inactive) | GI50 [51]: > 100 µM (inactive) | GI50 [53]: > 100 µM (inactive) | GI50 [26]: > 100 µM (inactive) | GI50 [27]: > 100 µM (inactive) | GI50 [28]: > 100 µM (inactive) | GI50 [29]: > 100 µM (inactive) | GI50 [54]: > 100 µM (inactive) | GI50 [55]: > 100 µM (inactive) | GI50 [56]: > 100 µM | GI50 [57]: > 100 µM (inactive) | GI50 [30]: > 100 µM (inactive)
